After the bases stand the sugars from the 5' end (letter, count) and the backbone: PS all phosphorothioate, else s phosphorothioate and o phosphodiester by linkage. Methylation of C is not given here. e = 2'-O-(2-methoxyethyl) (MOE); k = constrained ethyl (cEt); d = 2'-deoxy (DNA); m = 2'-O-methyl
Molecular target: HSD17B13
Settings: ASO, HepaRG

| Sequence | target mRNA inhibition (1 µM) | further results |
| --- | --- | --- |
| AAGGTTAGATTTCATC (sugars k3 d10 k3, PS) | 80% | target mRNA inhibition (0.02 µM): 1%; target mRNA inhibition (0.078 µM): 14%; target mRNA inhibition (0.313 µM): 60%; target mRNA inhibition (1.25 µM): 64%; target mRNA inhibition (5 µM): 78% |
| AAGTAGATGGTAAGTC (sugars k3 d10 k3, PS) | 85% | target mRNA inhibition (0.02 µM): 7%; target mRNA inhibition (0.078 µM): 42%; target mRNA inhibition (0.313 µM): 67%; target mRNA inhibition (1.25 µM): 89%; target mRNA inhibition (5 µM): 95% |
| AAGTTACCAGAGCATT (sugars k3 d10 k3, PS) | 70% | target mRNA inhibition (0.02 µM): 0%; target mRNA inhibition (0.078 µM): 5%; target mRNA inhibition (0.313 µM): 45%; target mRNA inhibition (1.25 µM): 80%; target mRNA inhibition (5 µM): 90% |
| AAGTTAGCCCCCAGGA (sugars k3 d9 k3 e1, PS) | 23% |  |
| AAGTTTGTTAGAGTGC (sugars k3 d10 k3, PS) | 74% |  |
| AAGTTTTGGGACCAAT (sugars k3 d10 k3, PS) | 11% |  |
| AATAATAGCTCTATTG (sugars k3 d9 k3 e1, PS) | 3% |  |
| AATACAGGATAGAGCA (sugars k3 d10 k3, PS) | 0% |  |
| AATACGACTTCCTTCT (sugars k3 d10 k3, PS) | 26% |  |
| AATACTCCCCAATTGC (sugars k3 d10 k3, PS) | 0% |  |
| AATAGAGTCGGTCACC (sugars k3 d9 k3 e1, PS) | 58% |  |
| AATAGAGTTGCACCGT (sugars k3 d10 k3, PS) | 48% |  |
| AATAGCCAGTACAGTT (sugars k3 d1 m1 d8 k3, PS) | 66% |  |
| AATAGTCTTCAGCAAA (sugars k3 d10 k3, PS) | 48% |  |
| AATATGTCCAGGTTGA (sugars k3 d10 k3, PS) | 64% |  |
| AATATTGAGGCACTGG (sugars k3 d9 k3 e1, PS) | 36% |  |
| AATCCCAACCAAACTT (sugars kkdddddddddkekek, PS) | 17% |  |
| AATGAATCATGATTGA (sugars k3 d10 k3, PS) | 33% |  |
| AATGAGGCGGCACTCA (sugars k3 d10 k3, PS) | 20% |  |
| AATGCTACTTGAACAG (sugars k3 d1 m1 d8 k3, PS) | 34% |  |
| AATGCTACTTGAACAG (sugars k3 d10 k3, PS) | 54% |  |
| AATGTAAGAAGCCACG (sugars k3 d10 k3, PS) | 26% |  |

| Sequence | target mRNA inhibition (1 µM) | further results |
| --- | --- | --- |
| AATTATTTCTTGCGAG (sugars k3 d10 k3, PS) | 16% |  |
| AATTCACCTTGACTAA (sugars k3 d1 m1 d8 k3, PS) | 0% |  |
| AATTCACCTTGACTAA (sugars kkdddddddddkekek, PS) | 9% |  |
| AATTCTATAGCTAAGT (sugars k3 d10 k3, PS) | 9% |  |
| AATTGTCTAAACATCT (sugars k3 d10 k3, PS) | 62% |  |
| AATTTATTTGCTGGTC (sugars k3 d10 k3, PS) | 27% |  |
| AATTTCATACAGTTCG (sugars k3 d10 k3, PS) | 66% |  |
| ACAACCCTTAACAAAC (sugars k3 d10 k3, PS) | 26% |  |
| ACAAGAGGATAGTCCA (sugars k3 d10 k3, PS) | 64% |  |
| ACAATATGGGATGAGG (sugars k3 d10 k3, PS) | 71% | target mRNA inhibition (0.02 µM): 29%; target mRNA inhibition (0.078 µM): 7%; target mRNA inhibition (0.313 µM): 43%; target mRNA inhibition (1.25 µM): 65%; target mRNA inhibition (5 µM): 85% |
| ACAATCAGGAGTTGCA (sugars k3 d10 k3, PS) | 62% |  |
| ACACTAATATTGAGGC (sugars k3 d9 k3 e1, PS) | 68% |  |
| ACACTAATATTGAGGC (sugars k3 d10 k3, PS) | 68% | target mRNA inhibition (0.02 µM): 28%; target mRNA inhibition (0.078 µM): 32%; target mRNA inhibition (0.313 µM): 37%; target mRNA inhibition (1.25 µM): 58%; target mRNA inhibition (5 µM): 85% |
| ACACTAATCTCAGTAC (sugars k3 d10 k3, PS) | 6% |  |
| ACAGAACCAATATGCT (sugars k3 d10 k3, PS) | 40% |  |
| ACAGACTAAGGGACCA (sugars k3 d10 k3, PS) | 68% |  |
| ACAGAGAATTGTTTAG (sugars k3 d10 k3, PS) | 39% |  |
| ACAGAGTTATTGTAGG (sugars k3 d10 k3, PS) | 58% |  |
| ACAGGTAATTAATCTT (sugars k3 d10 k3, PS) | 39% |  |
| ACAGTTCCTTTTCCTG (sugars k3 d10 k3, PS) | 58% |  |
| ACAGTTGAGTAGTGTA (sugars k3 d10 k3, PS) | 72% |  |
| ACAGTTTAGATTGCAT (sugars k3 d10 k3, PS) | 84% | target mRNA inhibition (0.02 µM): 12%; target mRNA inhibition (0.078 µM): 0%; target mRNA inhibition (0.313 µM): 73%; target mRNA inhibition (1.25 µM): 73%; target mRNA inhibition (5 µM): 97% |

| Sequence | target mRNA inhibition (1 µM) | further results |
| --- | --- | --- |
| ACATAACTTCATAGTG (sugars k3 d10 k3, PS) | 27% |  |
| ACATACGCATGCGCAG (sugars k3 d10 k3, PS) | 20% |  |
| ACATAGACATGTGTTC (sugars k3 d10 k3, PS) | 35% |  |
| ACATATGTGAAGAGCT (sugars k3 d10 k3, PS) | 66% |  |
| ACATCCAAGTAATTAC (sugars k3 d10 k3, PS) | 56% |  |
| ACATTAGCAAGCTAAG (sugars k3 d10 k3, PS) | 52% |  |
| ACATTGCAGTTATTAG (sugars k3 d9 k3 e1, PS) | 52% |  |
| ACATTGCAGTTATTAG (sugars kkdddddddddkekek, PS) | 46% |  |
| ACCAAACTTCCAGCAG (sugars kkdddddddddkekek, PS) | 32% |  |
| ACCAACGACTCCAAGT (sugars k3 d10 k3, PS) | 16% |  |
| ACCAATATGCTCTGTC (sugars k3 d10 k3, PS) | 67% | target mRNA inhibition (0.02 µM): 19%; target mRNA inhibition (0.078 µM): 5%; target mRNA inhibition (0.313 µM): 41%; target mRNA inhibition (1.25 µM): 78%; target mRNA inhibition (5 µM): 97% |
| ACCACACTAATGAATC (sugars k3 d10 k3, PS) | 54% |  |
| ACCACATAGCTAACTC (sugars k3 d10 k3, PS) | 50% |  |
| ACCCAAGCTACCTCCA (sugars k3 d10 k3, PS) | 9% |  |
| ACCCTTAGGAAAGCTC (sugars k3 d10 k3, PS) | 52% |  |
| ACCGTATTCCCAACGC (sugars k3 d10 k3, PS) | 90% | target mRNA inhibition (0.02 µM): 14%; target mRNA inhibition (0.078 µM): 35%; target mRNA inhibition (0.313 µM): 76%; target mRNA inhibition (1.25 µM): 83%; target mRNA inhibition (5 µM): 94% |
| ACCGTTTTGGGCTAAT (sugars kkdddddddddkekek, PS) | 76% | target mRNA inhibition (0.02 µM): 23%; target mRNA inhibition (0.078 µM): 24%; target mRNA inhibition (0.313 µM): 37%; target mRNA inhibition (1.25 µM): 66%; target mRNA inhibition (5 µM): 78% |
| ACCGUTTTGGGCTAAT (sugars k3 d1 m1 d8 k3, PS) | 65% |  |
| ACCTATGGTCTAACAC (sugars k3 d10 k3, PS) | 14% |  |
| ACCTCAAATGTCTTGG (sugars k3 d10 k3, PS) | 17% |  |
